From PMC4468608, “A distinct p53 target gene set predicts for response to the selective p53–HDM2 inhibitor NVP-CGM097” (eLife, 2015)
Read-outs that look alike come from different tables or passages of the source.

System: cell lines from the Cancer Cell Line Encyclopedia (CCLE)
Experiment: High-throughput cell viability assay, CCLE cell line panel (n = 356)
Type: cell-based, human
Settings: for IC50: Homo sapiens
Description: Cell lines were partitioned into sensitive and insensitive groups based on compound potency (IC50). […] All other cell lines were obtained from ATCC (American Type Culture Collection), DSMZ (Deutsche Sammlung von Mikroorganismen und Zellkulturen), and HSRRB (Health Science Research Resources Bank) and cultured in RPMI or Dulbecco's modified Eagle's medium plus 10% FBS (Invitrogen, Carlsbad, CA) at 37°C, 5% CO2.

COc1cc2c(cc1OC(C)C)[C@H](c1ccc(Cl)cc1)N(c1ccc(N(C)C[C@H]3CC[C@H](N4CCNC(=O)C4)CC3)cc1)C(=O)C2 [NVP-CFC218]
IC50 (read-out: NVP- CFC218 IC50 (µM), cell line MEL-HO, skin, TP53 WT): > 8 µM | IC50 (read-out: NVP- CFC218 IC50 (µM), cell line NCI-H1341, lung, TP53 WT): > 8 µM | IC50 (read-out: NVP- CFC218 IC50 (µM), cell line PE/CA-PJ41 (clone D2), upper_aerodigestive_tract, TP53 MUT): > 8 µM | IC50 (read-out: NVP- CFC218 IC50 (µM), cell line PEER, haem._and_lymphoid_tissue, TP53 MUT): > 8 µM | IC50 (read-out: NVP- CFC218 IC50 (µM), cell line SNG-M, endometrium, TP53 WT): > 8 µM | IC50 (read-out: NVP- CFC218 IC50 (µM), cell line Sq-1, lung, TP53 WT): > 8 µM | IC50 (read-out: NVP- CFC218 IC50 (µM), cell line TE-9, oesophagus, TP53 MUT): > 8 µM | IC50 (read-out: NVP- CFC218 IC50 (µM), cell line WM-88, skin, TP53 WT): > 8 µM | Amax (Hs 729, TP53 MUT): 7.88% | sensitivity call (Hs 729, TP53 MUT): insensitive (Sensitivity call for each compound was applied according to a cut-off of 4 µM for IC50 and -50% for Amax) | Amax (IGROV1, TP53 MUT): -1.82% | sensitivity call (IGROV1, TP53 MUT): insensitive (Sensitivity call for each compound was applied according to a cut-off of 4 µM for IC50 and -50% for Amax) | Amax (J82, TP53 MUT): -2.55% | sensitivity call (J82, TP53 MUT): insensitive (Sensitivity call for each compound was applied according to a cut-off of 4 µM for IC50 and -50% for Amax) | Amax (JHH-7, TP53 MUT): -2.28% | sensitivity call (JHH-7, TP53 MUT): insensitive (Sensitivity call for each compound was applied according to a cut-off of 4 µM for IC50 and -50% for Amax) | Amax (JHUEM-2, TP53 WT): -91.79% | sensitivity call (JHUEM-2, TP53 WT): sensitive (Sensitivity call for each compound was applied according to a cut-off of 4 µM for IC50 and -50% for Amax) | Amax (JMSU-1, TP53 MUT): 2.12% | sensitivity call (JMSU-1, TP53 MUT): insensitive (Sensitivity call for each compound was applied according to a cut-off of 4 µM for IC50 and -50% for Amax) | Amax (KE-39, TP53 MUT): -5.22% | sensitivity call (KE-39, TP53 MUT): insensitive (Sensitivity call for each compound was applied according to a cut-off of 4 µM for IC50 and -50% for Amax) | Amax (KE-97, TP53 WT): -79.42% | sensitivity call (KE-97, TP53 WT): sensitive (Sensitivity call for each compound was applied according to a cut-off of 4 µM for IC50 and -50% for Amax) | Amax (KMM-1, TP53 MUT): -27.14% | sensitivity call (KMM-1, TP53 MUT): insensitive (Sensitivity call for each compound was applied according to a cut-off of 4 µM for IC50 and -50% for Amax) | Amax (KNS-60, TP53 MUT): -1.47% | sensitivity call (KNS-60, TP53 MUT): insensitive (Sensitivity call for each compound was applied according to a cut-off of 4 µM for IC50 and -50% for Amax) | Amax (KP-N-SI9s, TP53 WT): -92.10% | sensitivity call (KP-N-SI9s, TP53 WT): sensitive (Sensitivity call for each compound was applied according to a cut-off of 4 µM for IC50 and -50% for Amax) | Amax (KU812, TP53 MUT): 19.95% | sensitivity call (KU812, TP53 MUT): insensitive (Sensitivity call for each compound was applied according to a cut-off of 4 µM for IC50 and -50% for Amax) | Amax (KYSE-30, TP53 MUT): -3.88% | sensitivity call (KYSE-30, TP53 MUT): insensitive (Sensitivity call for each compound was applied according to a cut-off of 4 µM for IC50 and -50% for Amax) | Amax (KYSE-70, TP53 MUT): -0.20% | sensitivity call (KYSE-70, TP53 MUT): insensitive (Sensitivity call for each compound was applied according to a cut-off of 4 µM for IC50 and -50% for Amax) | Amax (KYSE-140, TP53 MUT): -19.56% | sensitivity call (KYSE-140, TP53 MUT): insensitive (Sensitivity call for each compound was applied according to a cut-off of 4 µM for IC50 and -50% for Amax) | Amax (KYSE-180, TP53 MUT): -30.58% | sensitivity call (KYSE-180, TP53 MUT): insensitive (Sensitivity call for each compound was applied according to a cut-off of 4 µM for IC50 and -50% for Amax) | Amax (LCLC-103H, TP53 MUT): -1.79% | sensitivity call (LCLC-103H, TP53 MUT): insensitive (Sensitivity call for each compound was applied according to a cut-off of 4 µM for IC50 and -50% for Amax) | Amax (LK-2, TP53 MUT): -3.65% | sensitivity call (LK-2, TP53 MUT): insensitive (Sensitivity call for each compound was applied according to a cut-off of 4 µM for IC50 and -50% for Amax) | Amax (LN-18, TP53 MUT): -16.71% | sensitivity call (LN-18, TP53 MUT): insensitive (Sensitivity call for each compound was applied according to a cut-off of 4 µM for IC50 and -50% for Amax) | Amax (LOU-NH91, TP53 MUT): 2.89% | sensitivity call (LOU-NH91, TP53 MUT): insensitive (Sensitivity call for each compound was applied according to a cut-off of 4 µM for IC50 and -50% for Amax) | Amax (LOX IMVI, TP53 WT): -48.25% | sensitivity call (LOX IMVI, TP53 WT): insensitive (Sensitivity call for each compound was applied according to a cut-off of 4 µM for IC50 and -50% for Amax) | Amax (LU65, TP53 MUT): -1.36% | sensitivity call (LU65, TP53 MUT): insensitive (Sensitivity call for each compound was applied according to a cut-off of 4 µM for IC50 and -50% for Amax) | Amax (MEG-01, TP53 MUT): 0.30% | sensitivity call (MEG-01, TP53 MUT): insensitive (Sensitivity call for each compound was applied according to a cut-off of 4 µM for IC50 and -50% for Amax) | Amax (MKN74, TP53 MUT): 2.29% | sensitivity call (MKN74, TP53 MUT): insensitive (Sensitivity call for each compound was applied according to a cut-off of 4 µM for IC50 and -50% for Amax) | Amax (MOG-G-UVW, TP53 WT): 3.49% | sensitivity call (MOG-G-UVW, TP53 WT): insensitive (Sensitivity call for each compound was applied according to a cut-off of 4 µM for IC50 and -50% for Amax) | Amax (MOLM-16, TP53 MUT): 12.84% | sensitivity call (MOLM-16, TP53 MUT): insensitive (Sensitivity call for each compound was applied according to a cut-off of 4 µM for IC50 and -50% for Amax) | Amax (MeWo, TP53 MUT): 0.14% | sensitivity call (MeWo, TP53 MUT): insensitive (Sensitivity call for each compound was applied according to a cut-off of 4 µM for IC50 and -50% for Amax) | Amax (NCI-H23, TP53 MUT): -1.09% | sensitivity call (NCI-H23, TP53 MUT): insensitive (Sensitivity call for each compound was applied according to a cut-off of 4 µM for IC50 and -50% for Amax) | Amax (NCI-H1355, TP53 MUT): -28.98% | sensitivity call (NCI-H1355, TP53 MUT): insensitive (Sensitivity call for each compound was applied according to a cut-off of 4 µM for IC50 and -50% for Amax) | Amax (NCI-H1648, TP53 MUT): -2.43% | sensitivity call (NCI-H1648, TP53 MUT): insensitive (Sensitivity call for each compound was applied according to a cut-off of 4 µM for IC50 and -50% for Amax) | Amax (NCI-H1651, TP53 MUT): -2.57% | sensitivity call (NCI-H1651, TP53 MUT): insensitive (Sensitivity call for each compound was applied according to a cut-off of 4 µM for IC50 and -50% for Amax) | Amax (NCI-H2009, TP53 MUT): -6.28% | sensitivity call (NCI-H2009, TP53 MUT): insensitive (Sensitivity call for each compound was applied according to a cut-off of 4 µM for IC50 and -50% for Amax) | Amax (NCI-H2110, TP53 MUT): -4.78% | sensitivity call (NCI-H2110, TP53 MUT): insensitive (Sensitivity call for each compound was applied according to a cut-off of 4 µM for IC50 and -50% for Amax) | Amax (NCI-H2122, TP53 MUT): -89.07% | sensitivity call (NCI-H2122, TP53 MUT): sensitive (Sensitivity call for each compound was applied according to a cut-off of 4 µM for IC50 and -50% for Amax) | Amax (NCI-H2444, TP53 MUT): -4.64% | sensitivity call (NCI-H2444, TP53 MUT): insensitive (Sensitivity call for each compound was applied according to a cut-off of 4 µM for IC50 and -50% for Amax) | Amax (NCI-H2452, TP53 WT): -0.68% | sensitivity call (NCI-H2452, TP53 WT): insensitive (Sensitivity call for each compound was applied according to a cut-off of 4 µM for IC50 and -50% for Amax) | Amax (NCO2, TP53 MUT): -1.52% | sensitivity call (NCO2, TP53 MUT): insensitive (Sensitivity call for each compound was applied according to a cut-off of 4 µM for IC50 and -50% for Amax) | Amax (OCI-M1, TP53 MUT): -1.98% | sensitivity call (OCI-M1, TP53 MUT): insensitive (Sensitivity call for each compound was applied according to a cut-off of 4 µM for IC50 and -50% for Amax) | Amax (OE33, TP53 MUT): -2.82% | sensitivity call (OE33, TP53 MUT): insensitive (Sensitivity call for each compound was applied according to a cut-off of 4 µM for IC50 and -50% for Amax)
